Values of other authors in patent US5401490A, “Markers of tissue hypoxia” (priority 1989, dated 1995).

Columns and labels:
EMT-6 murine tumor cells = details: hypoxic in vitro; cited from earlier work
EMT-6 tumors = details: BALB/C mice; cited from earlier work
EMT-6 cells = details: 50 μM comparison, previously determined value; cited from earlier work
V-79 hamster cells = details: hypoxic in vitro; cited from earlier work
hypoxic cell [1] = details: in vitro; cited from earlier work
[2] = cited from earlier work
hypoxic cell [3] = details: in vitro; cited from earlier work; remark: listed apart in the source

Compound	binding to the macromolecular fraction (EMT-6 murine tumor cells)	binding to EMT-6 tumors in vivo (EMT-6 tumors)	sensitizer enhancement ratio (SER) (EMT-6 cells)	binding to the macromolecular fraction (V-79 hamster cells)	rates of binding compared with MISO (hypoxic cell [1])	metabolic deiodination in vivo [2]	hypoxic cell toxicity compared with MISO (hypoxic cell [3])
COCC(O)Cn1ccnc1[N+](=O)[O-] (centres unmarked) [MISO, misonidazole]	selectively bound to the macromolecular fraction	selectively bound	1.2	selectively bound to the macromolecular fraction			
O=[N+]([O-])c1nccn1C1OC(CI)C(O)C1O (centres unmarked) [IAZR, (1-5'-iodo-5'deoxyribofuranosyl)-2-nitroimidazole]			1.6		rates of binding than MISO	subject to metabolic deiodination	greater hypoxic cell toxicity
